The text below walks through data of paper PMC8688955 (Frontiers in Pharmacology, 2021).

Assay [1] addresses T1, CI-AMPARs (Rattus norvegicus, UniProt P19491, Q607R).
T1 construct: activity against native calcium-permeable AMPA receptors (CP-AMPARs) and calcium-impermeable AMPA receptors (CI-AMPARs); endogenous in cells; host or cells: acutely isolated pyramidal neurons from the CA1 area of Wistar rat hippocampal slices
Briefly: Whole-cell patch-clamp of kainate-induced currents in isolated hippocampal CA1 pyramidal neurons. Format: cell-based, Wistar rat. Conditions: for inhibition at 300 µM: 300 µM compound, read-out: percentage of inhibition at 300-µM concentration; for Activity drop in the presence of cyclothiazide: 50 µM kainate; for IC50: kainate-induced currents, Hill equation; for IC50 / CI-AMPARs % inhibition at 100 µM / inhibition at 100 µM: −80 mV; for CI-AMPARs % inhibition at 100 µM: 100 µM compound; for CI-AMPARs % inhibition at 100 µM / inhibition at 100 µM: currents induced by 100 µM kainate, mean ± SD, N = 5; for inhibition at 100 µM: read-out: CI-AMPARs % inhibition at 100 µM, 100 µM compound. The protocol:
All experimental procedures were approved by the Animal Care and Use Committee of the I.M. Sechenov Institute of Evolutionary Physiology and Biochemistry of the Russian Academy of Sciences. Wistar rats (13–19 days old) were anesthetized with sevoflurane and then decapitated. Maximum effort was made to minimize the number of animals used. Brains were removed quickly and cooled to 2–4°C in an ice bath. […] The antagonism of CI-AMPARs was studied on pyramidal neurons from the CA1 area of the hippocampus.
Series resistance of about 20 MΩ was compensated by 70–80% and monitored during experiments. Currents were recorded using an EPC-8 amplifier (HEKA Electronics, Lambrecht, Germany), filtered at 5 kHz, sampled, and stored on a personal computer. Drugs were applied using the RSC-200 perfusion system (BioLogic Science Instruments, Claix, France) under computer control. The solution exchange time in the whole-cell mode was 50–60 ms. […] The pipette solution contained (in mM) CsF 100, CsCl 40, NaCl 5, CaCl2 0.5, EGTA 5, and HEPES 10 (pH was adjusted to 7.2 with CsOH). Experiments were performed at room temperature (22–24°C). […] Lamotrigine, topiramate, levetiracetam, felbamate, carbamazepine, tiagabin, vigabatrin, zonisamide, and gabapentin were purchased from Tocris Bioscience (Bristol, United Kingdom). Perampanel was from MedChemExpress (Stockholm, Sweden). Kinetics of transient processes of more than 20-ms duration was approximated by exponential functions. Experiments were performed at −80 mV holding voltage. All experimental data are presented as mean ± SD estimated from at least four experiments. Significance of the effects was tested with paired t test. Differences were considered significant at p < 0.05. 3D structures of compounds were calculated by the ZMM software (zmmsoft.ca).
(In general: In patch-clamp work, channel activity is measured electrically.)

Assay [2] relates to CP-AMPARs. Briefly: Whole-cell patch-clamp of kainate-induced currents in isolated striatal giant interneurons. It counts as cell-based, Wistar rat. To be noted: for IC50: read-out: IC50 CP-AMPARs, kainate-induced currents, Hill equation; for IC50 / CP-AMPARs % inhibition at 100 µM: −80 mV; for CP-AMPARs % inhibition at 100 µM: 100 µM compound, currents induced by 100 µM kainate, mean ± SD, N = 5; for % block: IEM-1925, […], representative recording, Figure 3E; for % inhibition: […] IEM-1925. The protocol: All experimental procedures were approved by the Animal Care and Use Committee of the I.M. Sechenov Institute of Evolutionary Physiology and Biochemistry of the Russian Academy of Sciences. Wistar rats (13–19 days old) were anesthetized with sevoflurane and then decapitated. Maximum effort was made to minimize the number of animals used. Brains were removed quickly and cooled to 2–4°C in an ice bath. […] Single neurons were freed from slices by vibrodissociation ([Vorobjev, 1991]). The antagonism of CP-AMPARs was studied on striatal giant interneurons ([Bernard et al., 1997]; [Gotz et al., 1997]), which were identified by their shape and size. […] The antagonism of CI-AMPARs was studied on pyramidal neurons from the CA1 area of the hippocampus.
Series resistance of about 20 MΩ was compensated by 70–80% and monitored during experiments. Currents were recorded using an EPC-8 amplifier (HEKA Electronics, Lambrecht, Germany), filtered at 5 kHz, sampled, and stored on a personal computer. Drugs were applied using the RSC-200 perfusion system (BioLogic Science Instruments, Claix, France) under computer control. The solution exchange time in the whole-cell mode was 50–60 ms. The extracellular solution contained (in mM) NaCl 143, KCl 5, MgCl2 2.0, CaCl2 2.5, D-glucose 18, and HEPES 10 (pH was adjusted to 7.3 with HCl). The pipette solution contained (in mM) CsF 100, CsCl 40, NaCl 5, CaCl2 0.5, EGTA 5, and HEPES 10 (pH was adjusted to 7.2 with CsOH). Experiments were performed at room temperature (22–24°C). […] Lamotrigine, topiramate, levetiracetam, felbamate, carbamazepine, tiagabin, vigabatrin, zonisamide, and gabapentin were purchased from Tocris Bioscience (Bristol, United Kingdom). Perampanel was from MedChemExpress (Stockholm, Sweden). Kinetics of transient processes of more than 20-ms duration was approximated by exponential functions. Experiments were performed at −80 mV holding voltage. All experimental data are presented as mean ± SD estimated from at least four experiments. Significance of the effects was tested with paired t test. Differences were considered significant at p < 0.05. 3D structures of compounds were calculated by the ZMM software (zmmsoft.ca).

The subject of assay [3] is hGluA1-4 receptors. More on the design: method as in Fukushima et al. (2020). To be noted: ref Fukushima et al. (2020); cited from earlier work.
Assay [4] addresses T1, CI-AMPARs. More on the design: method as in Barygin, 2016. To be noted: ref Barygin, 2016; cited from earlier work.

Each structure is given as a SMILES string. Where “and” joins values, the source holds several entries; their conditions need not be identical. Identical values can stand only once. Like-named read-outs stand apart in the source and are kept apart here. Bounds are passed on as bounds.

A word on the IC50: it is the midpoint of a concentration-inhibition curve. What is called % inhibition is the change of the read-out against control, counted positive when it falls. A low value points to a response near the control.

T1 sequence (P19491 22-883 Q607R): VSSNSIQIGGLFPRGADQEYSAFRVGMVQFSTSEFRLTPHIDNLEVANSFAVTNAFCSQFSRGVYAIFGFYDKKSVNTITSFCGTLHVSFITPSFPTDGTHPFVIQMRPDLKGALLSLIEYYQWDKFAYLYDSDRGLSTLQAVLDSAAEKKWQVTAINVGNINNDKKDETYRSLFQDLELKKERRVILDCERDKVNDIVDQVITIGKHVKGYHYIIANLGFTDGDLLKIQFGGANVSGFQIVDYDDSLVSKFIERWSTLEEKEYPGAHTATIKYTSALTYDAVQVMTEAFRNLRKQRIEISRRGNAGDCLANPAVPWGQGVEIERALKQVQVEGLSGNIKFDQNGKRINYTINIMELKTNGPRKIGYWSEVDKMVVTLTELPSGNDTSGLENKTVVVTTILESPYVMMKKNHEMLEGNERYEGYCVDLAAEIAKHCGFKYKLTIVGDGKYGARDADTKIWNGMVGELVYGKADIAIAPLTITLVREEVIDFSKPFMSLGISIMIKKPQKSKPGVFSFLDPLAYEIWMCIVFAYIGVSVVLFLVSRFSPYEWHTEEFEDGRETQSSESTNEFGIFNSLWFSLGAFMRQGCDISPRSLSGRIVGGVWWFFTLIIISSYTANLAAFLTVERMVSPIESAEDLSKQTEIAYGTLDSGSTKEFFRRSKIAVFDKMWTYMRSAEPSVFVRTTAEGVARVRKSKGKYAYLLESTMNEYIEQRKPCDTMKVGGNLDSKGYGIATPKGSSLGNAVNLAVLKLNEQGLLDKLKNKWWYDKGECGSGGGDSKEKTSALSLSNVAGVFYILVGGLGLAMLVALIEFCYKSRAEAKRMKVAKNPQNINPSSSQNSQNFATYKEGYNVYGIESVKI

In the case of `O=C1CNC(=O)N1` [hydantoin], the inhibition at 300 µM in assay [1] was at most 20%.
Consider `CCCC(C)C1(CC)C(=O)NC(=O)NC1=O` (centres unmarked) [Pentobarbital], for which the “% block” value in assay [1] is 56% and 42%; in assay [1] (Pentobarbital, 50 μM, Kainate, 50 μM + cyclothiazide, 100 μM, representative recording, Figure 5E), 27%; in assay [1] (Pentobarbital, 50 μM, Kainate, representative recording, Figure 5D) it was 75%; in assay [1] (pentobarbital 30 μM, pH 7.4, Kainate, 100 μM, representative recording, Figure 10B), 65%; in assay [1] (pentobarbital 30 μM, pH 9.0, Kainate, 100 μM, representative recording, Figure 10B) it was 27%. Besides, the “Activity drop at high (500 µM) kainate concentration” value in assay [1] is “more active in the case of lower kainate concentration and Yes”. Also, the “More active against CI-AMPARs” value in assay [1] is listed as “Yes”. Also, the “effect on maximal response to kainate” value in assay [1] (14 µM pentobarbital) is “decreased the maximal response to kainate”. Further, the “Activity drop in the presence of cyclothiazide” value in assay [1] (100 µM cyclothiazide) is recorded as “Yes”; in assay [1] (100 µM cyclothiazide, listed as pentobarbital) it was “significantly attenuated in the presence of cyclothiazide”. The “decrease in the % of inhibition with the increase in agonist concentration” value in assay [1] (50 vs 500 µM kainate) is 10–15%. Further, in assay [1] (coapplication with kainate vs preapplication without kainate), the “Difference in the % of inhibition in coapplication and preapplication protocols” value was “more active in the coapplication protocol and Yes”. Besides, in assay [1] (double-pulse protocol, 30-s pause), the “Trap in kainate 100 µM” value was “Yes”. The values for the IC50 in assay [1] and in assay [2] were 14 ± 3 µM and 80 ± 13 µM, respectively. For the same compound, the pH-dependence entry in assay [1] (pH 7.4 vs 9.0) is recorded as “Yes”.
On to `C=CC(N)CCC(=O)O` (centres unmarked) [Vigabatrin], for which the “CI-AMPARs % inhibition at 100 µM” value in assay [1] was 8 ± 1%; in assay [1] (listed as vigabatrin) it was at most 20%. Besides, the “CP-AMPARs % inhibition at 100 µM” value was 10 ± 3% in assay [2] and at most 20% in assay [2] (listed as vigabatrin).
For `NS(=O)(=O)Cc1noc2ccccc12` [Zonisamide], in assay [1], the “CI-AMPARs % inhibition at 100 µM” value came out at 11 ± 2% and the inhibition at 100 µM was at most 20%. Also, the “CP-AMPARs % inhibition at 100 µM” value in assay [2] was determined as 11 ± 3%. Besides, in assay [2] (listed as zonisamide), the “CP-AMPARs % inhibition at 100 µM” value is at most 20%.
Consider `CCC1(c2ccccc2)C(=O)NCNC1=O` [primidone], for which, in assay [1], the inhibition at 300 µM is at most 20%.
For `Cc1ccsc1C(=CCCN1CCCC(C(=O)O)C1)c1sccc1C` (centres unmarked) [Tiagabin], in assay [1], the “CI-AMPARs % inhibition at 100 µM” value was found to be 14 ± 2% and the inhibition at 100 µM was at most 20%. For the same compound, the “CP-AMPARs % inhibition at 100 µM” value in assay [2] stood at 10 ± 2%. In addition, the “CP-AMPARs % inhibition at 100 µM” value in assay [2] (listed as tiagabin) is listed as at most 20%.
As to `COC[C@@H](NC(C)=O)C(=O)NCc1ccccc1` [lacosamide], the “activity against hGluA1-4 receptors” value in assay [3] was “did not find significant activity”.
As to `NCC1(CC(=O)O)CCCCC1` [Gabapentin], the “CI-AMPARs % inhibition at 100 µM” value in assay [1] is listed as 20 ± 6%. Further, the inhibition at 100 µM in assay [1] was at most 20%. The “CP-AMPARs % inhibition at 100 µM” value in assay [2] is given as 12 ± 5%; in assay [2] (listed as gabapentin), at most 20%. Moreover, the “activity against hGluA1-4 receptors” value in assay [3] is given as “did not find significant activity”.
For the compound `NC(=O)OCC(COC(N)=O)c1ccccc1` [Felbamate], in assay [1], the “CI-AMPARs % inhibition at 100 µM” value turned out to be 16 ± 4%. Also, the inhibition at 100 µM in assay [1] was at most 20%. The “CP-AMPARs % inhibition at 100 µM” value in assay [2] is listed as 10 ± 4%; in assay [2] (listed as felbamate), at most 20%.
In the case of `CCCC(CCC)C(=O)O` [valproate], the “activity against hGluA1-4 receptors” value in assay [3] is listed as “did not find significant activity”.
As to `CC1=NN=C(c2ccc(N)cc2)c2cc3c(cc2C1)OCO3` [GYKI-52466], in assay [1] (200 µM GYKI-52466), the “effect on the slow phase of recovery from 50 µM phenytoin” value is reported as “remains unchanged”. Moreover, in assay [4], the “displacement of slow negative allosteric antagonist perampanel” value is given as “able to displace”.
`NCCCCCNC1(c2ccccc2)CCCCC1` [IEM-1925]: in assay [1], the “More active against CI-AMPARs” value is “dramatically more active against CP-AMPARs and No”. The IC50 came to 180 ± 30 µM in assay [1] and 1.3 ± 0.4 µM in assay [2]. In addition, the “slow component of the response to testing kainate application in the trapping protocol” value in assay [2] (6 µM IEM-1925, double-pulse protocol, n = 4) is 1,800 ± 400 ms. In assay [2] (50 vs 500 µM kainate, striatal CP-AMPARs), the “Activity drop at high (500 µM) kainate concentration” value was “No”. Moreover, the entries for the “% block” value in assay [2] (Ka 50 μM) and in assay [2] (Ka 500 μM) were 49% and 57%, respectively. Besides, the figures for the “% inhibition” value in assay [2] (50 µM kainate) and in assay [2] (500 µM kainate) were 48 ± 3% and 55 ± 5%, respectively. In assay [2] (coapplication with kainate vs preapplication without kainate, striatal CP-AMPARs), the “Difference in the % of inhibition in coapplication and preapplication protocols” value is “inhibited only open channels and Yes”. Besides, the “Trap in kainate 100 µM” value in assay [2] (double-pulse protocol, 30-s pause, striatal giant interneuron) was “Yes”. The “Trap in kainate 500 µM” value in assay [2] (double-pulse protocol, striatal giant interneuron) is “Yes”.
On to `NS(=O)(=O)c1cc2c(cc1Cl)NC(C1CC3C=CC1C3)NS2(=O)=O` (centres unmarked) [Cyclothiazide], for which the fold potentiation in assay [1] (Kainate, 50 μM +/- cyclothiazide, 100 μM, representative recording, Figure 5A) is recorded as 7.4 fold. Also, the fold induction at 100 µM in assay [1] (read-out: increase of the stationary current induced by 50 µM kainate, 100 µM cyclothiazide) amounted to 8 ± 2.
As to `NC(=O)N1c2ccccc2C=Cc2ccccc21` [Carbamazepine], in assay [1], the “CI-AMPARs % inhibition at 100 µM” value turned out to be 11 ± 3% and the inhibition at 100 µM is at most 20%. Also, in assay [2], the “CP-AMPARs % inhibition at 100 µM” value worked out at 15 ± 4%. Besides, in assay [2] (listed as carbamazepine), the “CP-AMPARs % inhibition at 100 µM” value was at most 20%. For the same compound, the “activity against hGluA1-4 receptors” value in assay [3] is “did not find significant activity”.
As for `CCC1(C)CC(=O)NC1=O` (centres unmarked) [ethosuximide], the inhibition at 300 µM in assay [1] is at most 20%.
With `O=C1NC(=O)C(Cc2ccccc2)N1` (centres unmarked) [5-benzylhydantoin], in assay [1], the inhibition at 300 µM was at most 20%.
Regarding `CCC1(c2ccccc2)C(=O)NC(=O)NC1=O` [phenobarbital], the “activity against hGluA1-4 receptors” value in assay [3] is “did not find significant activity”.
